According to patent US5053070A, “Pyrimidine derivatives, preparation processes thereof, herbicide containing the same, and herbicidal compositions containing the same along with other active ingredient” (Mitsui Toatsu Chemicals, Incorporated, priority 1988, dated 1991):
≈ marks a conversion by molar mass, not a printed value.

Legend:
johnsongrass = assay: Upland foliar application test (Test 3); type: in vivo; conditions: 30 g ai/a, foliar spray at 2-3 leaves, 30th day
Procedure: (§1) Resin-made 1/10000-are pots were filled with the soil of an upland field. Redroot pigweed, common lambsquarters, foxtail meadow, johnsongrass, barnyardgrass, green foxtail, large crabgrass, soybean, peanut and cotton were separately seeded and were allowed to germinate in a green house. When each plant grew to the stage of 2-3 leaves, an emulsion formulated from a predetermined amount of each test compound in a similar manner to the method described in Formulation Example 11 was diluted with water to a predetermined dilution rate and then sprayed at an application rate equal to 5 l per are onto the foliage of each plant by means of a pressure-operated ULV (ultra low volume) sprayer. Influence to the crops and weeds were observed on the 30th day after the spray of the herbicides. The results are shown in Table 4 in which the degree of damages of each test plant and the degree of injury to each crop are shown in a similar manner to Test 2.

foxtail meadow = assay: Upland foliar application test (Test 3); type: in vivo; conditions: 30 g ai/a, foliar spray at 2-3 leaves, 30th day
Procedure: as §1

barnyardgrass [1] = assay: Upland foliar application test (Test 3); type: in vivo; conditions: 30 g ai/a, foliar spray at 2-3 leaves, 30th day
Procedure: as §1

redroot pigweed = assay: Upland foliar application test (Test 3); type: in vivo; conditions: 30 g ai/a, foliar spray at 2-3 leaves, 30th day
Procedure: as §1

large crabgrass = assay: Upland foliar application test (Test 3); type: in vivo; conditions: 30 g ai/a, foliar spray at 2-3 leaves, 30th day
Procedure: as §1

common lambsquarters = assay: Upland foliar application test (Test 3); type: in vivo; conditions: 30 g ai/a, foliar spray at 2-3 leaves, 30th day
Procedure: as §1

green foxtail = assay: Upland foliar application test (Test 3); type: in vivo; conditions: 30 g ai/a, foliar spray at 2-3 leaves, 30th day
Procedure: as §1

bulrush = assay: Treatment of soil under submerged condition, pre-emergence (Test 4); type: in vivo; conditions: 30 g ai/a granule, 30 days later
Procedure: (§2) 1/5000-are Wagner pots were filled with soil. Seeds or tubers of barnyardgrass, Monochoria vaginalis, bulrush, Sagittaria pygmaea, Cyperus seroylnus and Eleocharis kuroguwai were seeded or planted under submerged condition. Two pairs of rice seedlings (2-3 leaf stage), which had been reared in advance, were transplanted to each pot and were allowed to germinate in a green house. Each pair consisted of two rice seedlings. One day later (before emergence of weeds), each pot was treated with a granule which had been prepared by processing a predetermined amount of the test composition in accordance with a similar method to the method described in Formulation Example 9. The state of emergence of weeds and the state of injury of rice were observed 30 days later.
(§3) In the table, the degrees of damages of the test plants and the degrees of injury of rice are shown in a similar manner to Example 2.

barnyardgrass [2] = assay: as above; type: in vivo; conditions: 30 g ai/a granule, 30 days later
Procedure: as §2, §3

Sagittaria pygmaea = assay: as above; type: in vivo; conditions: 30 g ai/a granule, 30 days later
Procedure: as §2, §3

[3] = tested on: ALS (acetolactate syntase); assay: ALS enzyme assay (Test 1); type: biochemical, barnyardgrass; conditions: 1,000 ppm (0.5 mg/0.5 ml)
Procedure: (§4) To determine the selectivity in enzyme level between crops and weeds, and ALS enzyme assay was conducted using pea as a representative of broadleaf crops and barnyardgrass as a representative of narrowleaf weeds.
(§5) After seeds of pea and barnyardgrass were allowed to germinate at 25° C. for 8-14 days in a dark place, partially-purified suspensions (Suspensions A) of acetolactate syntase were separately obtained from seedlings in accordance with the method described in the literature, Plant Physiology, 75, 827-831.
(§6) In a test tube, 0.5 mg of one of test compounds was weighed, followed by the addition of 0.15 ml of a 20 mM K2 HPO4 solution and 0.25 ml of a reaction substrate medium which consisted of 40 mM of K2 HPO4, 40 mM of sodium pyruvate, 1 mM of TPP, 1 mM of MgCl2 and 20 μM of FAD so that 0.4 ml of a reaction solution (Solution B) was prepared. Added to 0.4 ml of Solution B was 0.1 ml of suspension A. After the resultant mixture was shaken for 1 hour in a thermostat water bath controlled at 30° C., 50 μl of 6N sulfuric acid were added to terminate the reaction.
(§7) Next, the reaction-terminated liquid mixture was transferred into a thermostat water bath controlled at 60° C. and was heated for 15 minutes. Thereafter, 0.5 ml of a 0.5% creatine solution and 0.5 ml of a 5% alkaline α-naphthol solution were added, and the resultant mixture was maintained at 60° C. for 15 minutes. As a result, the test solution developed a pink-red color. After the above operation, the absorbance of the test solution at 525 nm was measured by a spectrophotometer (Absorbance 1 of Test Compound).
(§8) On the other hand, the absorbance (Absorbance 2 of Blank) of a solution obtained by subjecting a portion of Solution B, said portion being free of the test compound, to the above operation and the absorbance (Absorbance 3 of sulfuric acid terminated) of another solution obtained by subjecting another portion of Solution B, said portion containing 50 μl of 6N sulfuric acid as a test compound, were measured at the same time. Based on the values of the respective measurements, the enzyme assay at 1,000 ppm (0.5 mg/0.5 ml) of each compound was determined. [formula]

soybean = assay: Upland soil application test (Test 2), crop injury; type: in vivo; conditions: 30 g ai/a, soil spray before emergence, 30 days later
Procedure: (§9) Resin-made 1/2500-are pots were filled with the soil of an upland field. After they were fertilized, soybean, peanut and cotton were seeded and 2-3 cm soil covering was applied. Seeds of redroot pigweed, common lambsquarters, barnyardgrass, green foxtail, large crabgrass, foxtail meadow and johnsongrass had been uniformly mixed with the soil. They were allowed to germinate in a green house. One day later (before emergence of weeds), a wettable powder prepared from a predetermined amount of each test compound in a similar manner to the method described in Formulation Example 1 was diluted with water and then sprayed evenly at an application rate equal to 10 l per are onto the surface of the soil by means of a pressure-operated ULV (ultra low volume) sprayer. Influence to the crops and weeds were observed 30 days later. The results are shown in Table 3, in which the degree of damages of each test plant and the degree of injury to each crop were determined by comparing the air-dried weights of the test plant and crop with those of the corresponding plant and crop in untreated pots and are shown in accordance with the following standard: […]

cotton = assay: Upland soil application test (Test 2), crop injury; type: in vivo; conditions: 30 g ai/a, soil spray before emergence, 30 days later
Procedure: as §9

peanut = assay: Upland soil application test (Test 2), crop injury; type: in vivo; conditions: 30 g ai/a, soil spray before emergence, 30 days later
Procedure: as §9

[4] = tested on: ALS (acetolactate syntase); assay: ALS enzyme assay (Test 1); type: biochemical, pea; conditions: 1,000 ppm (0.5 mg/0.5 ml)
Procedure: as §4, §5, §6, §7, §8

narrowleaf waterplantain = assay: Petri dish test (Test 6); type: in vivo; conditions: 336 h; seeds on filter paper, 25° C., 14 days; read-out: I80 (ppm)
Procedure: A filter paper was placed in each glass-made Petri dish having a diameter of 9 cm. A compound dissolved in acetone was added in a predetermined amount. The filter paper was then dried in air to remove acetone. Seeds of narrowleaf waterplantain were placed on the filter paper and 10 ml of water were poured into the Petri dish. The seeds were allowed to grow at 25° C. in a bright room. Fourteen days later, the state of growth of narrowleaf water-plantain was observed.
In the table, the degree of damages of the test plant was determined by comparing the state of growth of the plant with that of the plant in an untreated group and is shown in accordance with the following standard: […]

Compound	Herbicidal effects Johnsongrass (johnsongrass)	Herbicidal effects Foxtail meadow (foxtail meadow)	Herbicidal effects Barnyardgrass (barnyardgrass [1])	Herbicidal effects Redroot pigweed (redroot pigweed)	Herbicidal effects Large crabgrass (large crabgrass)	Herbicidal effects Common lambsquarters (common lambsquarters)	Herbicidal effects Green foxtail (green foxtail)	Herbicidal effects Bulrush (bulrush)	Herbicidal effects Barnyardgrass (barnyardgrass [2])	Herbicidal effects Sagittaria Pygmaea (Sagittaria pygmaea)	Inhibitory activity (%) Barnyardgrass [3]	Injury Soybean (soybean)	Injury Cotton (cotton)	Injury Peanut (peanut)	Inhibitory activity (%) Pea [4]	IC80 (narrowleaf waterplantain)
COc1cc(OC)nc(Oc2ccccc2C=NOCc2ccc(C)cc2)n1 [compound 19]	5 (0-5 (Death))	4 (6-10 (Severe damages))	3 (11-40 (Medium damages))	4 (6-10 (Severe damages))	3 (11-40 (Medium damages))	4 (6-10 (Severe damages))	5 (0-5 (Death))	4 (6-10 (Severe damages))	4 (6-10 (Severe damages))	4 (6-10 (Severe damages))	16%	0 (91-100 (No damages))	0 (91-100 (No damages))	0 (91-100 (No damages))	0%	100 µg/mL (≈ 264 µM)
C=CCON=Cc1ccccc1Oc1nc(OC)cc(OC)n1 [Compound No. 4]	5 (0-5 (Death))	5 (0-5 (Death))	5 (0-5 (Death))	4 (6-10 (Severe damages))	3 (11-40 (Medium damages))	3 (11-40 (Medium damages))	5 (0-5 (Death))	4 (6-10 (Severe damages))	4 (6-10 (Severe damages))	4 (6-10 (Severe damages))	59%	0 (91-100 (No damages))	0 (91-100 (No damages))	0 (91-100 (No damages))	0%	100 µg/mL (≈ 317 µM)
COc1cc(OC)nc(Oc2ccccc2C=NOCc2ccc(Cl)cc2Cl)n1 [Compound No. 17]	5 (0-5 (Death))	3 (11-40 (Medium damages))	3 (11-40 (Medium damages))	4 (6-10 (Severe damages))	3 (11-40 (Medium damages))	4 (6-10 (Severe damages))	5 (0-5 (Death))	4 (6-10 (Severe damages))	4 (6-10 (Severe damages))	3 (11-40 (Medium damages))	15%	0 (91-100 (No damages))	0 (91-100 (No damages))	0 (91-100 (No damages))	0%	100 µg/mL (≈ 230 µM)
COc1cc(OC)nc(Oc2ccccc2C=NOCc2ccc(Cl)c(Cl)c2)n1 [compound 18]	5 (0-5 (Death))	4 (6-10 (Severe damages))	4 (6-10 (Severe damages))	4 (6-10 (Severe damages))	3 (11-40 (Medium damages))	3 (11-40 (Medium damages))	5 (0-5 (Death))	2 (41-70 (Small damages))	4 (6-10 (Severe damages))	4 (6-10 (Severe damages))	14%	0 (91-100 (No damages))	0 (91-100 (No damages))		0%	67 µg/mL (≈ 154 µM)
COc1cc(OC)nc(Oc2ccccc2C=NOCC=Cc2ccccc2Br)n1 [compound 40]	5 (0-5 (Death))	5 (0-5 (Death))	5 (0-5 (Death))	5 (0-5 (Death))	4 (6-10 (Severe damages))	4 (6-10 (Severe damages))	4 (6-10 (Severe damages))	3 (11-40 (Medium damages))	5 (0-5 (Death))	5 (0-5 (Death))	94%	0 (91-100 (No damages))	0 (91-100 (No damages))	0 (91-100 (No damages))	0%	2 µg/mL (≈ 4.25 µM)
